What was measured:
kochia = assay: Test A pre-/postemergence herbicide test; type: in vivo, Kochia scoparia
How it was run: (§1)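 Directed soil spray to seeded pots (preemergence) or spray onto one- to two-leaf seedlings 2–10 cm tall (postemergence); loam/sand substrate throughout. Evaluated visually after about 10 days against untreated plants, 0 = no effect, 100 = complete control.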

ragweed = assay: Test A pre-/postemergence herbicide test; type: in vivo, Ambrosia elatior
How it was run: as §1

ryegrass, Italian = assay: Test A pre-/postemergence herbicide test; type: in vivo, Lolium multiflorum
How it was run: as §1

lambsquarters = assay: Test C pre-/postemergence herbicide test; type: in vivo, Chenopodium album
How it was run: (§2)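 Two application timings ran in parallel with identically formulated test chemicals (non-phytotoxic solvent, surfactant included): spray on seeded loam–sand soil, and spray on emerged plants 2 to 18 cm high. Evaluation at 13 to 15 days compared each species with controls, rated from 0 up to 100.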

barnyardgrass [1] = assay: Test C pre-/postemergence herbicide test; type: in vivo, Echinochloa crus-galli
How it was run: as §2

rice = assay: Test C flooded paddy test; type: in vivo, Oryza sativa; conditions: Flood
How it was run: (§3)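 Visual injury scored against controls after 13 to 15 days in the greenhouse, using 0 (no effect) to 100 (complete control). Test compounds went straight into paddy water held 3 cm above the soil surface on 2-leaf-stage plants, with that flood depth maintained for the whole test.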

sedge, umbrella = assay: Test C flooded paddy test; type: in vivo, Cyperus difformis; conditions: Flood
How it was run: as §3

barnyardgrass [2] = assay: Test C flooded paddy test; type: in vivo, Echinochloa crus-galli; conditions: Flood
How it was run: as §3

[3] = 125 g ai/ha, visual rating, 0 to 100 scale, 0 no effect, 100 complete control, approximately 10 days, preemergence
[4] = Postemergence, 125 g ai/ha, 0 to 100 scale, 0 is no effect, 100 is complete control
[5] = preemergence, 500 g ai/ha, 0 to 100 scale, 0 is no effect and 100 is complete control
[6] = Postemergence, 31 g ai/ha, scale 0 to 100 (0 no effect, 100 complete control)
[7] = Postemergence, 62 g ai/ha, scale 0 (no effect) to 100 (complete control)
[8] = Postemergence, 125 g ai/ha, scale 0 to 100 (0 no effect, 100 complete control)
[9] = Postemergence, 250 g ai/ha, scale 0 to 100 (0 no effect, 100 complete control)
[10] = Preemergence, 31 g ai/ha, scale 0 to 100, 0 is no effect and 100 is complete control
[11] = Preemergence, 62 g ai/ha, scale 0 to 100 (0 no effect, 100 complete control)
[12] = Preemergence, 125 g ai/ha, scale 0 to 100 (0 no effect, 100 complete control)
[13] = Preemergence, 62 g ai/ha, scale 0 to 100
[14] = 125 g ai/ha, scale of 0 to 100 where 0 is no effect and 100 is complete control, 13 to 15 days
[15] = 250 g ai/ha, scale of 0 to 100 where 0 is no effect and 100 is complete control, 13 to 15 days
[16] = Postemergence, 500 g ai/ha, 0 to 100 scale (0 no effect, 100 complete control)
[17] = Preemergence, 125 g ai/ha, 0 to 100 scale where 0 is no effect and 100 is complete control
[18] = Postemergence, 125 g ai/ha, visual rating on 0 to 100 scale (0 no effect, 100 complete control), approx. 10 days
[19] = 62 g ai/ha, scale of 0 to 100 where 0 is no effect and 100 is complete control, 13 to 15 days

SMILES | Plant response rating, Kochia (kochia; [4]) | Plant response rating, Kochia (kochia; [5]) | Plant response rating, Ragweed (ragweed; [5]) | Plant response rating, Ryegrass, Italian (ryegrass, Italian; [5]) | Lambsquarters plant response rating (lambsquarters; [10]) | Lambsquarters plant response rating (lambsquarters; [11]) | Plant response rating, Lambsquarters (lambsquarters; [12]) | Plant response rating (scale of 0 to 100), Lambsquarters (lambsquarters; Preemergence, 250 g ai/ha) | Barnyardgrass plant response rating (barnyardgrass [1]; [10]) | Plant response rating, Barnyardgrass (barnyardgrass [1]; [12]) | Plant response rating (scale of 0 to 100; 0 is no effect, 100 is complete control), Barnyardgrass (barnyardgrass [1]; Preemergence, 250 g ai/ha) | Plant response rating, Rice (rice; [14]) | Plant response rating, Rice (rice; [15]) | Plant response rating, Rice (rice; 500 g ai/ha, scale 0 to 100) | Plant response rating, Sedge, Umbrella (sedge, umbrella; [14]) | Plant response rating, Sedge, Umbrella (sedge, umbrella; [15]) | Plant response rating, Sedge, Umbrella (sedge, umbrella; 500 g ai/ha, scale 0 to 100) | Plant response rating, Barnyardgrass (barnyardgrass [2]; [14]) | Plant response rating, Barnyardgrass (barnyardgrass [2]; [15]) | Plant response rating, Barnyardgrass (barnyardgrass [2]; 500 g ai/ha, scale 0 to 100) | further results
O=C1NCC(c2cccc(C(F)(F)F)c2)C1C(=O)Nc1ccc(F)cc1F (racemic) [Compound 207] | 0 | 30 | 20 | 40 | 0 | 0 | 60 | 70 | 75 | 85 | 95 | 15 | 15 | 15 | 0 | 0 | 0 | 40 | 60 | 70 | Plant response rating, Kochia (kochia; [3]): 20; Kochia plant response rating (0 to 100 scale, 0 is no effect, 100 is complete control) (kochia; Postemergence, 500 g ai/ha): 0; Plant response rating, Ragweed (ragweed; [3]): 0; Plant response rating, Ragweed (ragweed; [4]): 0; Ragweed plant response rating (0 to 100 scale, 0 is no effect, 100 is complete control) (ragweed; Postemergence, 500 g ai/ha): 0; Plant response rating, Ryegrass, Italian (ryegrass, Italian; [3]): 20; Plant response rating, Ryegrass, Italian (ryegrass, Italian; [4]): 0; Ryegrass, Italian plant response rating (0 to 100 scale, 0 is no effect, 100 is complete control) (ryegrass, Italian; Postemergence, 500 g ai/ha): 50; Plant response rating, Lambsquarters (lambsquarters; [6]): 0; Plant response rating, Lambsquarters (lambsquarters; [7]): 10; Plant response rating, Lambsquarters (lambsquarters; [8]): 35; Plant response rating, Lambsquarters (lambsquarters; [9]): 15; Plant response rating, Barnyardgrass (barnyardgrass [1]; [6]): 0; Plant response rating, Barnyardgrass (barnyardgrass [1]; [7]): 10; Plant response rating, Barnyardgrass (barnyardgrass [1]; [8]): 35; Plant response rating, Barnyardgrass (barnyardgrass [1]; [9]): 65; Plant response rating, Barnyardgrass (barnyardgrass [1]; [13]): 85; Plant response rating, Rice (rice; 1000 g ai/ha, scale 0 to 100): 15; Plant response rating, Sedge, Umbrella (sedge, umbrella; 1000 g ai/ha, scale 0 to 100): 0; Plant response rating, Barnyardgrass (barnyardgrass [2]; 1000 g ai/ha, scale 0 to 100): 75
O=C1NCC(c2cccc(C(F)F)c2)C1C(=O)Nc1cccc(F)c1F (racemic) [Compound 211] | 40 | 70 | 80 | 40 | 100 | 85 | 100 | 100 | 30 | 85 | 90 | 0 | 0 | 15 | 0 | 0 | 0 | 0 | 50 | 55 | Plant response rating, Kochia (kochia; [3]): 40; Kochia plant response rating (0 to 100 scale, 0 is no effect, 100 is complete control) (kochia; Postemergence, 500 g ai/ha): 60; Plant response rating, Ragweed (ragweed; [3]): 30; Plant response rating, Ragweed (ragweed; [4]): 0; Ragweed plant response rating (0 to 100 scale, 0 is no effect, 100 is complete control) (ragweed; Postemergence, 500 g ai/ha): 30; Plant response rating, Ryegrass, Italian (ryegrass, Italian; [3]): 0; Plant response rating, Ryegrass, Italian (ryegrass, Italian; [4]): 30; Ryegrass, Italian plant response rating (0 to 100 scale, 0 is no effect, 100 is complete control) (ryegrass, Italian; Postemergence, 500 g ai/ha): 60; Plant response rating, Barnyardgrass (barnyardgrass [1]; [13]): 65; Plant response rating, Rice (rice; 1000 g ai/ha, scale 0 to 100): 15; Plant response rating, Sedge, Umbrella (sedge, umbrella; 1000 g ai/ha, scale 0 to 100): 30; Plant response rating, Barnyardgrass (barnyardgrass [2]; 1000 g ai/ha, scale 0 to 100): 80
O=C1NCC(c2cccc(Cl)c2)C1C(=O)Nc1cccc(F)c1F (racemic) [Compound 275] | 50 | 80 | 40 | 60 | 70 | 75 | 85 | 98 | 80 | 95 | 98 | 0 | 10 | 10 | 0 | 0 | 0 | 45 | 60 | 70 | Plant response rating, Kochia (kochia; [16]): 80; Plant response rating, Kochia (kochia; [17]): 60; Plant response rating, Ragweed (ragweed; [18]): 30; Plant response rating, Ragweed (ragweed; [16]): 30; Plant response rating, Ragweed (ragweed; [17]): 20; Plant response rating, Ryegrass, Italian (ryegrass, Italian; [18]): 30; Plant response rating, Ryegrass, Italian (ryegrass, Italian; [16]): 50; Plant response rating, Ryegrass, Italian (ryegrass, Italian; [17]): 30; Plant response rating, Lambsquarters (lambsquarters; [6]): 10; Plant response rating, Lambsquarters (lambsquarters; [7]): 60; Plant response rating, Lambsquarters (lambsquarters; [8]): 75; Plant response rating, Lambsquarters (lambsquarters; [9]): 75; Plant response rating, Barnyardgrass (barnyardgrass [1]; [6]): 30; Plant response rating, Barnyardgrass (barnyardgrass [1]; [7]): 60; Plant response rating, Barnyardgrass (barnyardgrass [1]; [8]): 75; Plant response rating, Barnyardgrass (barnyardgrass [1]; [9]): 85; Barnyardgrass plant response rating (barnyardgrass [1]; [11]): 95; Plant response rating, Rice (rice; [19]): 0; Plant response rating, Sedge, Umbrella (sedge, umbrella; [19]): 0; Plant response rating, Barnyardgrass (barnyardgrass [2]; [19]): 35

Source: patent US10294202B2, “Pyrrolidinones as herbicides” (FMC Corporation, priority 2013, dated 2019)
